The subject of data set [1] is E. coli expressing the A. marina VHPO gene. Description: Bromoform production by E. coli expressing A. marina VHPO with 1,3-dicarbonyl substrates of Table 4. The class given is cell-based, Escherichia coli. The following applies: 1 mM substrate, 100 mM H2O2, 24 hours room temperature; FIG. 8. As to the method:
A sample with no additional substrate was also run as a control experiment. Samples (1 mL) were incubated in sealed tubes at room temperature for 24 hours. 10 μL samples from each were withdrawn and added to 1 mL brine to improve phase separation16 and placed in a 20 mL GC vial, which were then sealed with magnetic screw caps (Agilent). The head space of each sample was analyzed by solid phase microextraction (SPME) GC-MS.
To test for bromoform production E. coli cells were resuspended in 1 mL water/100 mL culture volume and 20% v/v of this cell suspension was added to a solution of substrate listed in Table 4 in addition to 100 mM HEPES (pH 7.4), 20 mM KBr, 1 mM Na3VO4, and 100 mM H2O2. Samples (1 mL) were incubated in sealed tubes at room temperature for 24 hours. 10 μL samples from each were withdrawn and added to 1 mL brine in a GC vial before sealing. The head space of each sample was analysed by solid phase microextraction (SPME) GC/MS as above. Bromoform was quantified by comparison with a standard curve prepared from authentic samples of bromoform as described above.

The test system of data set [2] is S. cerevisiae BY4741 transformed with pRS-ePST1-AmVHPO. Put plainly: Bromoform synthesis by S. cerevisiae with peroxisome-targeted VHPO in SDUGGO media. The note with it: 0.1% oleic acid together with 3-amino-1,2,4-triazol. The class given is cell-based, Saccharomyces cerevisiae. As to the method:
10 mL seed cultures of were inoculated with a single colony of BY4741 transformed with pRS-ePST1-AmVHPO in SD and grown at 220 rpm, 30° C. overnight. These were used to inoculate 10 mL cultures of SDUGGO media (uracil (0.67% yeast nitrogenous base without amino acids, 0.192% Merck yeast synthetic dropout medium supplement without uracil, 10% glycerol, 0.1% glucose, 100 mM KBr, 1 mM Na3VO4, 100 mM MOPS (pH 6.5), 0.1% oleic acid emulsified in 1% tergitol) at an initial OD600 of 2.0, and incubated for a further 24 hours at 220 rpm, 30° C. As with E. coli, samples were grown in 50 mL tubes with the lids closed to minimize the loss of bromoform by evaporation. Cells were harvested by centrifugation and resuspended in 1 mL of brine (6 M NaCl), transferred into 20 mL headspace GC vials and sealed with a magnetic screw cap before analysis by SPME-GC-MS.
With this plasmid in hand, the media was adapted to allow for maximum flux through beta-oxidation, incorporating both oleic acid to induce β-oxidation and glycerol as a non-repressing carbon source. A small amount of glucose (0.1%) was also included to stimulate initial cell growth, alongside Mops buffer (pH 6.5), which improved bromoform production compared with unbuffered cultures. KBr and Na3VO4 were also added to allow for VHPO activity.

Data set [3] has as its system E. coli transformed to express VHPO. Description: Bromoform biosynthesis in growing E. coli cultures expressing VHPO with inhibitors or oleic acid. The class given is cell-based, Escherichia coli. The following applies: for production of bromoform in culture: 0.1% oleic acid, 1% tergitol, with amino-triazole to inhibit catalase; for bromoform observed in culture: 0.5 g/L tannic acid together with 10 mM 3-amino-1,2,4-triazole, 18 hours. On the procedure:
VHPO was expressed in E. coli isolate BL21 (DE3) as described above. Alongside IPTG (0.2 mM) the culture was also supplemented with 50 mM KBr, 1 mM Na3VO4, 10 mM 3-amino,1,2,4-triazole, and 0.5 g/L tannic acid or 0.1% oleic acid (emulsified with 1% tergitol (Merck, Ma USA)). Typically, 10 mL LB cultures were grown in 50 mL tubes with the lids closed. Vented tubes led to the loss of bromoform by evaporation. Cells were harvested by centrifugation and resuspended in 1 mL of brine (6 M NaCl), transferred into 20 mL headspace GC vials and sealed with a magnetic screw cap before analysis by SPME-GC-MS.
This strategy utilizes tannic acid to inhibit FabG to promote the accumulation acetoacyl-acyl-carrier-proteins (Wu et al., 2010), alongside 3-amino-1,2,4-triazol to inhibit catalase and promote the accumulation of H2O2(Meir and Yagil, 1985). FabG is β-ketoacyl-ACP reductase [EC 1.1.1.100], an enzyme that catalyses the reduction of acetoacyl-acyl carrier proteins during fatty acid synthesis. Catalase consumes the intracellular H2O2 which is required for VHPO activity. Both inhibitors were added to cultures E. coli transformed to express VHPO upon induction with IPTG. The VHPO gene from the marine cyanobacterium Acaryochloris marina MBIC110174 was synthesized by Epoch Life Science Inc. (Tx, USA) using the published gene sequence (GenBank Accession CP000828-nucleotides 5020736-5018817). This gene sequence was codon optimized for E. coli expression and cloned into expression vector pACYCDuet1 under the regulatory control of a LacI repressor and T7 promoter and terminator sequences. Cell growth was allowed to continue for 18 hours in the presence of these molecules with the addition of KBr and Na3VO4, before harvesting the cells by centrifugation and analysis of bromoform levels.
Alongside IPTG (0.2 mM) the culture was also supplemented with 50 mM KBr, 1 mM Na3VO4, 10 mM 3-amino,1,2,4-triazole, and 0.5 g/L tannic acid or 0.1% oleic acid (emulsified with 1% tergitol (Merck, Ma USA)). Typically, 10 mL LB cultures were grown in 50 mL tubes with the lids closed. Vented tubes led to the loss of bromoform by evaporation. Cells were harvested by centrifugation and resuspended in 1 mL of brine (6 M NaCl), transferred into 20 mL headspace GC vials and sealed with a magnetic screw cap before analysis by SPME-GC-MS.

Data set [4] addresses T1, VHPO extracted from Corallina officinalis (Corallina officinalis, UniProt Q8LLW7).
T1 construct: VHPO extracted from Corallina officinalis (Sigma); purchased Sigma; host or cells: extracted from the red alga Corallina officinalis (natural source)
T1 sequence (Q8LLW7 1-598): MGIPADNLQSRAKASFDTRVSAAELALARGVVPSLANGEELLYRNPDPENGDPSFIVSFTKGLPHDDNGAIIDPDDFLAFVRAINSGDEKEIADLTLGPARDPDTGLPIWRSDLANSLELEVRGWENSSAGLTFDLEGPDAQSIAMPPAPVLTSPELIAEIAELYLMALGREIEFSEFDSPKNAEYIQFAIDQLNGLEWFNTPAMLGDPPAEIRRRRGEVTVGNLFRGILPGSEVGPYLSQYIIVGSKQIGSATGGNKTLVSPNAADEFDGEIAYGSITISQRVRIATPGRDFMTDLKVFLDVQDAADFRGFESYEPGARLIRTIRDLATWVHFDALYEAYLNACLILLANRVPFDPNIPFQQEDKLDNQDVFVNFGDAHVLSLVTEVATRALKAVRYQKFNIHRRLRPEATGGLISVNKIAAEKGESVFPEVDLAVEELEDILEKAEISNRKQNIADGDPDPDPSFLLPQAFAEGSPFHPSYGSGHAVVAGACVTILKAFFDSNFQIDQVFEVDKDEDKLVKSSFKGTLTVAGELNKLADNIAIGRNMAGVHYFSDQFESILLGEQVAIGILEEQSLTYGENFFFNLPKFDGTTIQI
Description: Bromoform synthesis by extracted enzyme. The class given is biochemical. The note with it: 0.1 U VHPO, 10 mM substrate, 50 mM KBr, 50 mM H2O2. On the procedure:
The whole reaction (100 μL) was transferred to a GC-Headspace vial and left at room temperature until analysis by SPME-GCMS as before. Relative bromoform levels were assessed as described above.

For data set [5] the following is noted: cited from earlier work.
Data set [6] relates to E. coli expressing the A. marina VHPO gene. Description: Time course of bromoform production from acetylacetone by the E. coli cell suspension with repeated H2O2 addition. The class given is cell-based, Escherichia coli. As to the method:
It was hypothesized that with sufficient hydrogen peroxide supply full conversion to bromoform could be achieved. To this end an additional reaction was set up with 10% E. coli cell suspension 100 mM HEPES (pH 7.4), 100 mM KBr, 1 mM Na3VO4, and 400 mM H2O2 added to initiate the reaction, then again after 2 and 4 hours. 10 μL of this reaction was sampled at 0, 20, 60, 120, 180, 240, and 360 minutes, the reaction was stopped by addition of 1 mL of ice cold brine and samples were stored in sealed GC vials at −20° C. before analysis by SPME-GC/MS as above. Bromoform was quantified by comparison with a standard curve prepared from authentic samples of bromoform, added to control samples (identical to the reaction, except containing no bromide), to account for matrix effects. The time course and standard curve is shown below in FIG. 7.

Data set [7] shares this test system. Description: Bromoform production by E. coli cells expressing A. marina VHPO with Table 3 substrates (SPME-GC/MS). The class given is cell-based, Escherichia coli. The note with it: 1 mM substrate, 50 mM H2O2, 24 hours room temperature; compared with the other samples of Table 3. As to the method: Transformed E. coli were then grown in LB with 30 μg/mL chloramphenicol at 37° C. 220 rpm, until OD600 ˜0.6. IPTG 0.2 mM was then added and the cultures transferred to 28° C. with shaking at 220 rpm for a further 18 hours. Cells were harvested by centrifugation and kept at −20° C. before further use.
To test for bromoform production E. coli cells were resuspended in 1 mL water/100 mL culture volume and 20% v/v of this cell suspension was added to a solution of substrate listed below in Table 3, 100 mM HEPES (pH 7.4), 20 mM KBr, 1 mM Na3VO4, and 50 mM H2O2. Samples (100 μL) were incubated in sealed GC vials at room temperature for 24 hours. The head space of each sample was analysed by solid phase microextraction (SPME) GC/MS using a 7890A series gas chromatograph, a 5975C inert XL MSD mass selective detector and a MPS2 Gerstel multipurpose autosampler. Bromoform was identified in samples by comparison of the retention time with an authentic standard (Sigma, USA) and by mass spectral matching using the NIST/EPA/NIH Mass Spectral Library (version 2014). Relative bromoform quantities were measured by integration of the m/z=250 signal in extracted ion chromatograms generated using Agilent Mass Hunter software (version 10.0).

Turning to `CCC(=O)CC(=O)CC` [3,5-heptanedione], in data set [1], the bromoform production result is reported as “increase in bromoform production”.
Consider `Nc1nc[nH]n1` [3-amino-1,2,4-triazol], for which, in data set [2], the “bromoform detected in the cell pellet” value is “only when both oleic acid and 3-amino-1,2,4-triazol were added”. Also, in data set [3], the “production of bromoform in culture” value is recorded as “trace amounts” and the “bromoform observed in culture” value was “only observed when both inhibitors were added”.
Consider `CC1(C)CC(=O)CC(=O)C1` [5,5-dimethyl-1,3-cyclohexanedione], for which the entries for the “increase in bromoform concentration relative to acetone” value in data set [4] (listed as dimedone) and in data set [4] (listed as dimidone) were 51 fold and “up to 50 fold”, respectively. In addition, in data set [1], the bromoform production result is “increase in bromoform production”. Besides, in data set [5], the “pKa (H2O solvent reference)” value is 5.2 (Brodwell, personal.
Consider `CC(=O)CC(C)=O` [acetylacetone], for which the “amount of bromoform synthesised” value in data set [6] (400 mM H2O2 added at start and again after 2 and 4 hours) turned out to be 5 mg/mL. Moreover, the “conversion to bromoform (yield based on acetylacetone)” value in data set [6] (after three hours, 400 mM H2O2 added at start and again after 2 and 4 hours) is listed as 97%. The “part of acetylacetone converted rapidly to bromoform” value in data set [6] (initial phase of the reaction) is “Approximately half”. Moreover, the bromoform production entry in data set [1] is “increase in bromoform production”. In addition, in data set [7], the “increase in bromoform production” value is reported as 10 fold.
As to `CCOC(=O)CC(C)=O` [ethyl acetoacetate], the bromoform production result in data set [1] was “increase in bromoform production”. For the same compound, in data set [5], the “pKa (H2O solvent reference)” value is listed as 10.7 (Brodwell, personal.
`CCCCCCCC/C=C\CCCCCCCC(=O)O` [oleic acid]: the “bromoform detected in the cell pellet” value in data set [2] was “only when both oleic acid and 3-amino-1,2,4-triazol were added”. For the same compound, the “production of bromoform in culture” value in data set [3] is “trace amounts”.
As to `O=C(OC[C@H]1O[C@@H](OC(=O)c2cc(O)c(O)c(OC(=O)c3cc(O)c(O)c(O)c3)c2)[C@H](OC(=O)c2cc(O)c(O)c(OC(=O)c3cc(O)c(O)c(O)c3)c2)[C@@H](OC(=O)c2cc(O)c(O)c(OC(=O)c3cc(O)c(O)c(O)c3)c2)[C@@H]1OC(=O)c1cc(O)c(O)c(OC(=O)c2cc(O)c(O)c(O)c2)c1)c1cc(O)c(O)c(OC(=O)c2cc(O)c(O)c(O)c2)c1` [tannic acid], in data set [3], the “bromoform observed in culture” value is recorded as “only observed when both inhibitors were added”.
